Test results as given in publication PMC4965013, “Open Source Drug Discovery with the Malaria Box Compound Collection for Neglected Diseases and Beyond” (PLoS Pathogens, 2016).

Key:
[1] = system: P. falciparum; experiment: EC50 listed in S2 Table Metabolomics (used to set the concentration tested); format: cell-based; details: Plasmodium falciparum; EC50 used for Factor_XEC50 in metabolomics; read-out: EC50_nM
[2] = system: P. falciparum 3D7 trophozoites; experiment: Metabolomic fingerprint profiling LC-MS; format: cell-based, Plasmodium falciparum; set-up: UDP-D-glucose / ADP-D-glucose: unit not given here
[3] = metabolite level change after treatment

- EC50 [1]: 512 nM
Compound: CCn1c(CN2CCN(Cc3ccccc3)CC2)nc2cc(NC(=O)c3cccs3)ccc21 [MMV020439]
- Acetyllysine ([2]; S2 Table Metabolomics, metabolite Acetyllysine): 0.7202
- N-acetyl-L-ornithine ([2]; S2 Table Metabolomics, metabolite N-acetyl-L-ornithine): 1.173
- N-carbamoyl-L-aspartate ([2]; S2 Table Metabolomics, metabolite N-carbamoyl-L-aspartate): 4.61
- NADPH ([2]; S2 Table Metabolomics, metabolite NADPH): 0.6182
- dAMP ([2]; S2 Table Metabolomics, metabolite dAMP): -1.31
- dCMP ([2]; S2 Table Metabolomics, metabolite dCMP): -0.04169
- dTDP ([2]; S2 Table Metabolomics, metabolite dTDP): -1.17
- dTMP ([2]; S2 Table Metabolomics, metabolite dTMP): -0.7966
- dTTP ([2]; S2 Table Metabolomics, metabolite dTTP): -1.312
- dihydroorotate ([2]; S2 Table Metabolomics, metabolite dihydroorotate): 4.909
- orotate ([2]; S2 Table Metabolomics, metabolite orotate): 0.06984
- DLH ([2]; S2 Table Metabolomics, peptide DLH): 0.527
- DLS/SDL/SID ([2]; S2 Table Metabolomics, peptide DLS/SDL/SID): 0.4749
- PD ([2]; S2 Table Metabolomics, peptide PD): 0.8243
- PEE ([2]; S2 Table Metabolomics, peptide PEE): 1.011
- PVNF ([2]; S2 Table Metabolomics, peptide PVNF): 0.2931
- 3-phosphoglycerate ([2]; metabolite 3-phosphoglycerate, S2 Table Metabolomics): -0.2906
- ADP-D-glucose ([2]; metabolite ADP-D-glucose, S2 Table Metabolomics): 0.1986
- ATP ([2]; metabolite ATP, S2 Table Metabolomics): -0.1401
- CDP ([2]; metabolite CDP, S2 Table Metabolomics, change in metabolite level after compound treatment): -0.619
- D-sedoheptulose-1/7-phosphate ([2]; metabolite D-sedoheptulose-1/7-phosphate, S2 Table Metabolomics, change in metabolite level after compound treatment): 0.1339
- FAD ([2]; metabolite FAD, S2 Table Metabolomics): 0.2064
- GMP ([2]; metabolite GMP, S2 Table Metabolomics, change in metabolite level after compound treatment): -0.008752
- NAD+ ([2]; metabolite NAD+, S2 Table Metabolomics): -0.02079
- NADP+ ([2]; metabolite NADP+, S2 Table Metabolomics): 0.1784
- Octoluse Bisphosphate ([2]; metabolite Octoluse Bisphosphate, S2 Table Metabolomics, change in metabolite level after compound treatment): -0.1148
- Pyroglutamic acid ([2]; metabolite Pyroglutamic acid, S2 Table Metabolomics): -0.1051
- UDP-D-glucose ([2]; metabolite UDP-D-glucose, S2 Table Metabolomics): -0.06605
- UDP-D-glucuronate ([2]; metabolite UDP-D-glucuronate, S2 Table Metabolomics): -0.1248
- UDP-N-acetyl-glucosamine ([2]; metabolite UDP-N-acetyl-glucosamine, S2 Table Metabolomics): -0.297
- UDP ([2]; metabolite UDP, S2 Table Metabolomics, change in metabolite level after compound treatment): -1.2
- UMP ([2]; metabolite UMP, S2 Table Metabolomics, change in metabolite level after compound treatment): -1.107
- UTP ([2]; metabolite UTP, S2 Table Metabolomics, change in metabolite level after compound treatment): -1.42
- a-ketoglutarate ([2]; metabolite a-ketoglutarate, S2 Table Metabolomics): -0.8941
- citrate/isocitrate ([2]; metabolite citrate/isocitrate, S2 Table Metabolomics, change in metabolite level after compound treatment): -0.2089
- cytidine ([2]; metabolite cytidine, S2 Table Metabolomics): 0.004614
- dATP ([2]; metabolite dATP, S2 Table Metabolomics): 0.08773
- dGMP/AMP ([2]; metabolite dGMP/AMP, S2 Table Metabolomics, change in metabolite level after compound treatment): -0.284
- fumarate ([2]; metabolite fumarate, S2 Table Metabolomics, change in metabolite level after compound treatment): 0.6925
- glucose-1/6-phosphate ([2]; metabolite glucose-1/6-phosphate, S2 Table Metabolomics, change in metabolite level after compound treatment): -0.2278
- glycerate ([2]; metabolite glycerate, S2 Table Metabolomics, change in metabolite level after compound treatment): -0.4348
- guanine ([2]; metabolite guanine, S2 Table Metabolomics, change in metabolite level after compound treatment): 0.1895
- guanosine ([2]; metabolite guanosine, S2 Table Metabolomics, change in metabolite level after compound treatment): 0.2428
- hypoxanthine ([2]; metabolite hypoxanthine, S2 Table Metabolomics): -0.1751
- indole ([2]; metabolite indole, S2 Table Metabolomics): -0.1227
- inosine ([2]; metabolite inosine, S2 Table Metabolomics, change in metabolite level after compound treatment): -0.4694
- 2_3-Diphosphoglyceric acid [2, 3]: -0.2253
- 4-phosphopantothenate [2, 3]: -0.909
- 6-phospho-D-gluconate [2, 3]: -0.007867
- FMN [2, 3]: -0.349
- IMP [2, 3]: -0.2804
- Pyrophosphate [2, 3]: -0.2048
- Sedoheptoluse bisphosphate [2, 3]: 0.08493
- cyclic-AMP [2, 3]: -0.08461
- glutathione disulfide [2, 3]: -0.0242
- lactate [2, 3]: -0.4874
- myo-inositol [2, 3]: -0.8159
- nicotinate ([2]; metabolite nicotinate, S2 Table Metabolomics): -0.2742
- ornithine ([2]; metabolite ornithine, S2 Table Metabolomics): -0.03081
- phosphoenolpyruvate ([2]; metabolite phosphoenolpyruvate, S2 Table Metabolomics): -0.3915
- pyruvate ([2]; metabolite pyruvate, S2 Table Metabolomics, change in metabolite level after compound treatment): -0.2887
- ribose-phosphate ([2]; metabolite ribose-phosphate, S2 Table Metabolomics): -0.1311
- sarcosine/alanine ([2]; metabolite sarcosine/alanine, S2 Table Metabolomics, change in metabolite level after compound treatment): 1.094
- sn-glycerol-3-phosphate ([2]; metabolite sn-glycerol-3-phosphate, S2 Table Metabolomics): 0.2993
- succinate/methylmalonic acid ([2]; metabolite succinate/methylmalonic acid, S2 Table Metabolomics, change in metabolite level after compound treatment): 0.5601
- uridine ([2]; metabolite uridine, S2 Table Metabolomics, change in metabolite level after compound treatment): 0.2091
- xanthosine ([2]; metabolite xanthosine, S2 Table Metabolomics, change in metabolite level after compound treatment): -0.0525
